# Target: Sodium-dependent dopamine transporter (Rattus norvegicus, UniProt P23977)
# Assay: The compound was tested for binding affinity towards dopamine transporter in rat caudate putamen
# Assay type: tissue-based
# Sequence of Sodium-dependent dopamine transporter (P23977 whole entry): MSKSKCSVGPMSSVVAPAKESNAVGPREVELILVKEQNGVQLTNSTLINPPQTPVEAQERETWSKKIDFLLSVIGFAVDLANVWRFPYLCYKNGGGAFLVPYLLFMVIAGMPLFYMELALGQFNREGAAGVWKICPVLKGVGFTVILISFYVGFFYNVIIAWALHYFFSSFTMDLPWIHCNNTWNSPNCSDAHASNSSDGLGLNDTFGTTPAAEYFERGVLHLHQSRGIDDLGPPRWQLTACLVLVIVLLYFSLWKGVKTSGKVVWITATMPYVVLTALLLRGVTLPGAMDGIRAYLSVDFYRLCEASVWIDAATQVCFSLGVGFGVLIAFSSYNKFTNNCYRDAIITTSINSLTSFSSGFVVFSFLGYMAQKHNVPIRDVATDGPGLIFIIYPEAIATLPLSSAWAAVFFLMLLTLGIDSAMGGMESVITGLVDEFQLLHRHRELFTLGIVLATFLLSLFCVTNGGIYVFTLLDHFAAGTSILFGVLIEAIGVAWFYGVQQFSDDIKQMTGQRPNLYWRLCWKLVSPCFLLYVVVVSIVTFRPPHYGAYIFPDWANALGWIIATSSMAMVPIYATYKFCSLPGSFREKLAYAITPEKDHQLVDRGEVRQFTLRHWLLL
row,Compound,Ki
1,Nc1ccc(CCCCN2[C@@H]3CC[C@H]2C[C@@H](OC(c2ccc(F)cc2)c2ccc(F)cc2)C3)cc1,29.7 nM
2,[N-]=[N+]=Nc1ccc(CCCCN2[C@@H]3CC[C@H]2C[C@@H](OC(c2ccc(F)cc2)c2ccc(F)cc2)C3)cc1I,159 nM
